Measured values as given in patent US10647680B2, “Urea compound, preparation method therefor and medical use thereof” (Ancureall Pharmaceutical (Shanghai) Co., Ltd., priority 2016, dated 2020).
Where a name gives a salt, the structure may show the parent alone.

How the values were obtained:
[1] = Solubility test; assay type: physicochemical; details: in water at 25° C.±2° C.
Description: The fine powder of the test sample was weighed into an appropriate amount of water at 25° C.±2° C. and shaken vigorously for 30 seconds every 5 minutes so that it was fully dissolved within 30 minutes. If no visible solute particles were observed, it was considered completely dissolved. “Readily soluble” means that 1 g of the test sample could be dissolved in 1-10 ml of water; and “soluble” means that 1 g of the test sample could be dissolved in 10-30 ml of water; “slightly soluble” means that 1 g of the test sample could be dissolved in 30-100 ml of water; and “sparingly soluble” means that 1 g of the test sample could be dissolved in 100-1,000 ml of water; “nearly insoluble or insoluble” means that 1 g of the test sample could not be completely dissolved in 10,000 ml of water.

[2] = Stability test: high humidity test (90%); assay type: physicochemical; details: 25° C., relative humidity 90%±5%, 10 days, HPLC
Description: The test samples were placed into an integrated drug stability test chamber (YSEI) in an exposed way at 25° C. and relative humidity of 90%±5% for 10 days. Samples were taken on the 5th and 10th days and tested according to the drug stability test indices.
(§1) An appropriate amount of test samples was taken and dissolved in acetonitrile-water (1:1), and quantitatively diluted to a solution of about 0.3 mg/ml. 20 ul of solution was injected into a liquid chromatograph (Agilent 1260 Infinity), the chromatogram was then recorded and calculated according to the percentage area method. The mobile phase was a phosphate buffer and acetonitrile aqueous solution, and then a gradient elution was carried out.

[3] = Stability test: high temperature test (60° C.); assay type: physicochemical; details: exposed at 60° C. for 10 days, HPLC
Description: The test samples were placed into an integrated drug stability test chamber (YSEI) in an exposed way at 60° C. for 10 days. Samples were taken on the 5th and 10th days and tested according to the drug stability test indices.
as §1

[4] = Stability test: intense light test (4500LX); assay type: physicochemical; details: 4500LX±500LX light for 10 days, HPLC
Description: The test samples were placed into an integrated drug stability test chamber (YSEI) in an exposed way under 4500LX±500LX light for 10 days. Samples were taken on the 5th and 10th days and tested according to the drug stability test indices.
as §1

[5] = Stability in rat hepatocytes; assay type: in vitro ADME
Description: The stability experiment on rat hepatocytes was performed using compound 77 of the present invention as a representative example.
Procedure: The rat hepatocyte William's Medium E mixed reaction solution (2*10^6 cells/mL, 25 BD Gentest) was placed in a carbon dioxide incubator, and a certain volume of test substance or reference substance was added to the reaction system to initiate the reaction. In the final reaction system, the concentrations of the test substance or positive control testosterone were both 1 uM. Samples were taken at 0, 5, 15, 30, 45, 60, and 120 min after the reaction to a new centrifuge tube (3 portions in parallel at each time point), and 3-fold volume of ice methanol solution containing internal standard was added immediately to terminate the reactions, then after centrifugation for 5 min at 15,000 rpm to precipitate the protein, 100 μL of the supernatant was fetched to an autosampler vial for LC-MS/MS analysis (Waters Corp. ACQUITY UPLC, USA Applied Biosystems Inc. mass spectrometer API 400). The ratio of mean peak area of compound 77 to the mean peak area of internal standard at each time point was calculated, and the percentage of this ratio to that at time point 0 was calculated, and then change in this percentage was used to indicate the metabolic stability of the compound 77. […]

Compound | High Humidity (90%) [2] | High temperature (60° C.) [3] | Lighting (4500 LX) [4] | other results
CC(C)(C)c1cc(NC(=O)Nc2ccc(-n3cnc4cc(OCCN5CCOCC5)ccc43)cc2)no1 [Compound 16, 1-(5-tert-butyl-isoxazol-3-yl)-3-{4-[5-(2-morpholin-4-yl-ethoxyl)-benzimidazol-1-yl]-phenyl}-urea] | – | – | – | Solubility ([1]; listed as 16 Free base): insoluble (“nearly insoluble or insoluble” means that 1 g of the test sample could not be completely dissolved in 10,000 ml of water)
COc1ccc2c(c1)ncn2-c1ccc(NC(=O)Nc2cc(C(C)(C)C)n[nH]2)cc1 [Compound 71, 1-(5-tert-butyl-2H-pyrazol-3-yl)-3-[4-(5-methoxyl-benzimidazol-1-yl)-phenyl]-urea] | – | – | – | Solubility ([1]; listed as 71 Free base): insoluble (“nearly insoluble or insoluble” means that 1 g of the test sample could not be completely dissolved in 10,000 ml of water)
COCCOc1ccc2c(c1)ncn2-c1ccc(NC(=O)Nc2cc(C(C)(C)C)n[nH]2)cc1 [Compound 77 Mesylate, 1-(5-tert-butyl-2H-pyrazol-3-yl)-3-{4-[5-(2-methoxyl-ethoxyl)-benzimidazol-1-yl]-phenyl}-urea] | stable | stable | stable | Solubility ([1]; listed as 77 Mesylate): soluble (“soluble” means that 1 g of the test sample could be dissolved in 10-30 ml of water)
COCCOc1ccc2c(c1)ncn2-c1ccc(NC(=O)Nc2cc(C(C)(C)C)n[nH]2)cc1 [Compound 77, 1-(5-tert-butyl-2H-pyrazol-3-yl)-3-{4-[5-(2-methoxyl-ethoxyl)-benzimidazol-1-yl]-phenyl}-urea] | – | – | – | half-life at 1 uM [5]: > 2 h; Solubility ([1]; listed as 77 Free base): insoluble (“nearly insoluble or insoluble” means that 1 g of the test sample could not be completely dissolved in 10,000 ml of water)
CC(C)(C)c1cc(NC(=O)Nc2ccc(-n3cnc4cc(OCCN5CCOCC5)ccc43)cc2)[nH]n1 [Compound 89, 1-(5-tert-butyl-2H-pyrazol-3-yl)-3-{4-[5-(2-morpholin-4-yl-ethoxyl)-benzimidazol-1-yl]-phenyl}-urea] | stable | stable | stable | Solubility ([1]; listed as 89 Free base): insoluble (“nearly insoluble or insoluble” means that 1 g of the test sample could not be completely dissolved in 10,000 ml of water)
